# Results: patent US20260092061A1, “COMPOUNDS FOR TARGETED PROTEIN DEGRADATION” (Amphista Therapeutics Limited, priority 2022, published 2026)
# Target: T1, BRD9 (Homo sapiens, UniProt Q9H8M2)
# T1 sequence (Q9H8M2 1-597): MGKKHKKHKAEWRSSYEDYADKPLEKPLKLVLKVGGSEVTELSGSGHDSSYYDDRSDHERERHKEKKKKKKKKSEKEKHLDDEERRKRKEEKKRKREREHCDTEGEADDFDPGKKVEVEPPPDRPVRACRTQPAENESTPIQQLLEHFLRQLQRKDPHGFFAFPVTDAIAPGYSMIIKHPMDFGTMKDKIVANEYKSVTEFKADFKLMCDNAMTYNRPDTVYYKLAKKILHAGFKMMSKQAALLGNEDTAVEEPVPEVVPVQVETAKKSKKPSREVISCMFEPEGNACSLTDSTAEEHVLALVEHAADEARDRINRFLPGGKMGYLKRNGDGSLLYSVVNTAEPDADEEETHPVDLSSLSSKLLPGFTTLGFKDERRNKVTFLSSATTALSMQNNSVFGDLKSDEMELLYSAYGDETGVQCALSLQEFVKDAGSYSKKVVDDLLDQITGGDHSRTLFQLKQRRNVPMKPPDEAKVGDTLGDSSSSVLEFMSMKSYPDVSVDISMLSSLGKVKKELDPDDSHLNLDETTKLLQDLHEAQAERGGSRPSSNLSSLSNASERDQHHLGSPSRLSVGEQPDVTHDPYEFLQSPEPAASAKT
# Experiment: Degradation of BRD9 (IF), immunofluorescence in MV4-11 cells, 24 hours (Assay Protocol 2)
# Format: cell-based
# Design: A suspension of MV4-11 cells (ATCC CRL-9591) was prepared; host or cells: MV4-11
# Conditions: BRD9 degradation; for DC50: Assay protocol 2, read-out: DC50; for Dmax: MV4-11, Assay protocol 2, read-out: Dmax
# Experimental: Assay Protocol 2—Degradation of BRD9 (IF)
# A suspension of MV4-11 cells (ATCC CRL-9591) was prepared in phenol red-free assay media (IMDM Thermo Scientific 21056023+10% FBS ATCC 302025) and cells were seeded at 20,000 cells per well (45 μL) in sterile black poly-d-lysine coated 384 well plates (Greiner 781948). Compounds were prepared at 1000× final concentration in DMSO, diluted 1:100 in assay media, and 5 μL compound was added to each well of the cell plate. Cells were incubated for 24 hours at 37° C. with 5% CO2. All the following incubations for immunofluorescence staining were at room temperature. 15 μL of 16% PFA was added to each well (3.7% final concentration) and the cells were fixed for 15 min then washed twice with DPBS. Cells were permeabilised with 0.1% Triton X-100 for 10 min, Triton X-100 was removed, then blocked with 1% BSA in DPBS for 1 hour. Cells were stained with 25 μL anti-BRD9 E4Q3F antibody (CST 48306) diluted 1:25600 in 1% BSA in DPBS for 2-3 hours. Wels were washed twice with DPBS then incubated with 25 μL of 1% BSA containing a 1:1000 dilution of Anti-rabbit Alexa Fluor™ 647 secondary antibody (Thero Scientific A21244) and 1 μg/mL Hoechst nuclear counter stain (Abcam ab228551) for 1 hour. Wells were washed twice with DPBS prior to imaging on a Perkin Elmer Operetta CLS with 10× air lens. Images were processed using Harmony High-Content Imaging and Analysis Software (Perkin Elmer) and the mean contrast ratio of Alexa Fluor™ 647 in central nuclei was used to quantify BRD9 protein levels. Data was further analysed using Dotmatics software and % BRD9 remaining was calculated by normalisation to average data from high and low control wells (cells treated with DMSO or 100 nM CFT-8634 respectively).
SMILES,DC50 [nM],Dmax [%]
"COc1cc(-c2cn(C)c(=O)c(C)c2C)cc(OC)c1CN1CCN(Cc2cccc3c2CCN(C(=O)/C(C#N)=C/C2(C)CCC2)C3C)CC1 (mixture of isomers) [Compound B76, (E/Z)-2-(5-((4-(2,6-dimethoxy-4-(1,4,5-trimethyl-6-oxo-1,6-dihydropyridin-3-yl)benzyl)piperazin-1-yl)methyl)-1-methyl-1,2,3,4-tetrahydroisoquinoline-2-carbonyl)-3-(1-methylcyclobutyl)acrylonitrile]",1.25 to 10,40 to 70
COc1cc(-c2cn(C)c(=O)c(C)c2C)cc(OC)c1CN1CCN(C(=O)CCCCOc2ccc(C3CCCN3C(=O)/C(C#N)=C/c3nccs3)cc2)CC1 (mixture of isomers) [Compound B82],25 to 1000,40 to 70
"COc1cc(-c2cn(C)c(=O)c(C)c2C)cc(OC)c1CN1CCN(C(=O)COCCOc2ccc3c(c2)C(C)N(C(=O)/C(C#N)=C/c2nccs2)CC3)CC1 (mixture of isomers) [Compound B83, (E/Z)-2-(7-(2-(2-(4-(2,6-dimethoxy-4-(1,4,5-trimethyl-6-oxo-1,6-dihydropyridin-3-yl)benzyl)piperazin-1-yl)-2-oxoethoxy)ethoxy)-1-methyl-1,2,3,4-tetrahydroisoquinoline-2-carbonyl)-3-(thiazol-2-yl)acrylonitrile]",1.25 to 10,> 75
"COc1cc(-c2cn(C)c(=O)c(C)c2C)cc(OC)c1CN1CCN(C(=O)CCCCOc2ccc3c(c2)C(C)N(C(=O)/C(C#N)=C/c2nccs2)CC3)CC1 (mixture of isomers) [Compound B84, (E/Z)-2-(7-((5-(4-(2,6-dimethoxy-4-(1,4,5-trimethyl-6-oxo-1,6-dihydropyridin-3-yl)benzyl)piperazin-1-yl)-5-oxopentyl)oxy)-1-methyl-1,2,3,4-tetrahydroisoquinoline-2-carbonyl)-3-(thiazol-2-yl)acrylonitrile]",1.25 to 10,> 75
"COc1cc(-c2cn(C)c(=O)c(C)c2C)cc(OC)c1CN1CCC(COc2cccc3c2CCN(C(=O)/C(C#N)=C/C(C)(C)C)C3C)CC1 (mixture of isomers) [Compound B86, (E/Z)-2-(5-((1-(2,6-dimethoxy-4-(1,4,5-trimethyl-6-oxo-1,6-dihydropyridin-3-yl)benzyl)piperidin-4-yl)methoxy)-1-methyl-1,2,3,4-tetrahydroisoquinoline-2-carbonyl)-4,4-dimethylpent-2-enenitrile]",10 to 25,40 to 70
"COc1cc(-c2cn(C)c(=O)c(C)c2C)cc(OC)c1C(=O)N1CCC(Oc2cccc3c2CCN(C(=O)/C(C#N)=C/c2cccc(Br)n2)C3C)CC1 (mixture of isomers) [Compound B88, (E/Z)-3-(6-bromopyridin-2-yl)-2-(5-((1-(2,6-dimethoxy-4-(1,4,5-trimethyl-6-oxo-1,6-dihydropyridin-3-yl)benzoyl)piperidin-4-yl)oxy)-1-methyl-1,2,3,4-tetrahydroisoquinoline-2-carbonyl)acrylonitrile]",10 to 25,40 to 70
"COc1cc(-c2cn(C)c(=O)c(C)c2C)cc(OC)c1CN1CCN(Cc2cccc3c2CCN(C(=O)/C(C#N)=C/C2CCCC2)C3C)CC1 (mixture of isomers) [Compound B90, (E/Z)-3-cyclopentyl-2-(5-((4-(2,6-dimethoxy-4-(1,4,5-trimethyl-6-oxo-1,6-dihydropyridin-3-yl)benzyl)piperazin-1-yl)methyl)-1-methyl-1,2,3,4-tetrahydroisoquinoline-2-carbonyl)acrylonitrile]",10 to 25,40 to 70
"COc1cc(-c2cn(C)c(=O)c(C)c2C)cc(OC)c1CN1CCN(Cc2cccc3c2CCN(C(=O)/C(C#N)=C/c2cccc(F)c2F)C3C)CC1 (mixture of isomers) [Compound B91, (E/Z)-3-(2,3-difluorophenyl)-2-(5-((4-(2,6-dimethoxy-4-(1,4,5-trimethyl-6-oxo-1,6-dihydropyridin-3-yl)benzyl)piperazin-1-yl)methyl)-1-methyl-1,2,3,4-tetrahydroisoquinoline-2-carbonyl)acrylonitrile]",1.25 to 10,40 to 70

# Results, then the compound that gave them:
DC50 [nM],Dmax [%],SMILES
1.25 to 10,40 to 70,"COc1cnc(F)c(/C=C(\C#N)C(=O)N2CCc3c(CN4CCN(Cc5c(OC)cc(-c6cn(C)c(=O)c(C)c6C)cc5OC)CC4)cccc3C2C)c1 (mixture of isomers) [Compound B75, (E/Z)-2-(5-((4-(2,6-dimethoxy-4-(1,4,5-trimethyl-6-oxo-1,6-dihydropyridin-3-yl)benzyl)piperazin-1-yl)methyl)-1-methyl-1,2,3,4-tetrahydroisoquinoline-2-carbonyl)-3-(2-fluoro-5-methoxypyridin-3-yl)acrylonitrile]"
< 1.25,40 to 70,COc1cc(-c2cn(C)c(=O)c3ccsc23)cc(OC)c1CN1CCC(Oc2cccc3c2CCN(C(=O)/C(C#N)=C/c2cccc(Br)n2)C3C)CC1 (mixture of isomers) [Compound B77]
< 1.25,70 to 75,"COc1cc(-c2cn(C)c(=O)c(C)c2C)cc(OC)c1C(=O)N1CCC(Oc2cccc(C3CCCN3C(=O)/C(C#N)=C/C(C)(C)C)c2)CC1 (mixture of isomers) [Compound B79, (E/Z)-2-(2-(3-((1-(2,6-dimethoxy-4-(1,4,5-trimethyl-1-oxo-1,6-dihydropyridin-3-yl)benzoyl)piperidin-4-yl)oxy)phenyl)pyrrolidine-1-carbonyl)-4,4-dimethylpent-2-enenitrile]"
< 1.25,40 to 70,"COc1cc(-c2cn(C)c(=O)c(C)c2C)cc(OC)c1C(=O)N1CCN(Cc2cccc3c2CCN(C(=O)/C(C#N)=C/c2cccc(Br)n2)C3C)CC1 (mixture of isomers) [Compound B80, (E/Z)-3-(6-bromopyridin-2-yl)-2-(5-((4-(2,6-dimethoxy-4-(1,4,5-trimethyl-6-oxo-1,6-dihydropyridin-3-yl)benzoyl)piperazin-1-yl)methyl)-1-methyl-1,2,3,4-tetrahydroisoquinoline-2-carbonyl)acrylonitrile]"
< 1.25,> 75,COc1cc(-c2cc(C)c(=O)n(C)c2)cc(OC)c1CN1CCN(Cc2cccc(C3CCCN3C(=O)/C(C#N)=C/C(C)(C)C)c2)CC1 (mixture of isomers) [Compound B81]
< 1.25,> 75,"COc1cc(-c2cn(C)c(=O)c(C)c2C)cc(OC)c1CN1CCN(Cc2cccc3c2CCN(C(=O)/C(C#N)=C/c2cnc(C)cn2)C3C)CC1 (mixture of isomers) [Compound B89, (E/Z)-2-(5-((4-(2,6-dimethoxy-4-(1,4,5-trimethyl-6-oxo-1,6-dihydropyridin-3-yl)benzyl)piperazin-1-yl)methyl)-1-methyl-1,2,3,4-tetrahydroisoquinoline-2-carbonyl)-3-(5-methylpyrazin-2-yl)acrylonitrile]"
< 1.25,40 to 70,"COc1cc(/C=C(\C#N)C(=O)N2CCc3c(CN4CCN(Cc5c(OC)cc(-c6cn(C)c(=O)c(C)c6C)cc5OC)CC4)cccc3C2C)c(F)cn1 (mixture of isomers) [Compound B92, (E/Z)-2-(5-((4-(2,6-dimethoxy-4-(1,4,5-trimethyl-6-oxo-1,6-dihydropyridin-3-yl)benzyl)piperazin-1-yl)methyl)-1-methyl-1,2,3,4-tetrahydroisoquinoline-2-carbonyl)-3-(5-fluoro-2-methoxypyridin-4-yl)acrylonitrile]"
